The kinase profiling compilation of Christmann-Franck et al. (2016)

Columns and labels:
Assay in all cases: KINOMEscan competition binding
Conditions in all cases: compound 10.0 µM
AURKA (human) = AURKA (human) (UniProt O14965)
BMPR2 (human) = BMPR2 (human) (UniProt Q13873)
CDC42BPB (human) = CDC42BPB (human) (UniProt Q9Y5S2)
CDK7 (human) = CDK7 (human) (UniProt P50613)
CDKL2 (human) = CDKL2 (human) (UniProt Q92772)
CLK3 (human) = CLK3 (human) (UniProt P49761)
CSNK1E (human) = CSNK1E (human) (UniProt P49674)
CaMK1 (human) = CaMK1 (human) (UniProt Q14012)
DAPK3 (human) = DAPK3 (human) (UniProt O43293)
DDR2 (human) = DDR2 (human) (UniProt Q16832)
EIF2AK2 (human) = EIF2AK2 (human) (UniProt P19525)
EPHA3 (human) = EPHA3 (human) (UniProt P29320)
EPHB1 (human) = EPHB1 (human) (UniProt P54762)
EPHB3 (human) = EPHB3 (human) (UniProt P54753)
EPHB3 (human), sequence (P54753 whole entry, looked up): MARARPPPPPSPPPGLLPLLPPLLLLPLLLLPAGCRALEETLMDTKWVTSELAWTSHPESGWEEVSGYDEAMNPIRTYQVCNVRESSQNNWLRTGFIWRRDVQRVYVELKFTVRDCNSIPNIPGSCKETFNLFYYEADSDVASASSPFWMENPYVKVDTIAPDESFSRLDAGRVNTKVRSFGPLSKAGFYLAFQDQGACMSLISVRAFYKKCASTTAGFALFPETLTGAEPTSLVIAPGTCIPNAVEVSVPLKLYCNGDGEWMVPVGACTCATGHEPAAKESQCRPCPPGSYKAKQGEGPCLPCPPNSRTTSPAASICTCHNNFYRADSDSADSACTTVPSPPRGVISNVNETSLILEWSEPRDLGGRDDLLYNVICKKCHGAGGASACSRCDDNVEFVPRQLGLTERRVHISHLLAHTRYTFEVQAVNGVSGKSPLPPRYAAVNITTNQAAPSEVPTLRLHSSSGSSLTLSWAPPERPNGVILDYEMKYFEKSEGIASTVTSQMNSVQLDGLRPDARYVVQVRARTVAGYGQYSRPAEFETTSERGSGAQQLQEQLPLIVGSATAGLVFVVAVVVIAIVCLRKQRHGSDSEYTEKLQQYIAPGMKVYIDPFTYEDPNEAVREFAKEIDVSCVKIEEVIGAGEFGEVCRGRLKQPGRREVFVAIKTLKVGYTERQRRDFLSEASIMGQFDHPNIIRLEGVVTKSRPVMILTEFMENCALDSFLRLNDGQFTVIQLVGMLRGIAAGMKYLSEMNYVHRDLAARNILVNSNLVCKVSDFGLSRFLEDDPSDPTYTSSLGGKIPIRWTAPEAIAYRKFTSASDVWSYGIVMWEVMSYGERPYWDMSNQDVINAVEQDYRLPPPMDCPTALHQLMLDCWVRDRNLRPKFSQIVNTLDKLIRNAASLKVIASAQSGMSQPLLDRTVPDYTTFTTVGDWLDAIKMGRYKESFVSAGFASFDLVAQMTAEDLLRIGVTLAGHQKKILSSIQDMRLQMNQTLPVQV

HIPK1 (human) = HIPK1 (human) (UniProt Q86Z02)
HIPK1 (human), sequence (Q86Z02 whole entry, looked up): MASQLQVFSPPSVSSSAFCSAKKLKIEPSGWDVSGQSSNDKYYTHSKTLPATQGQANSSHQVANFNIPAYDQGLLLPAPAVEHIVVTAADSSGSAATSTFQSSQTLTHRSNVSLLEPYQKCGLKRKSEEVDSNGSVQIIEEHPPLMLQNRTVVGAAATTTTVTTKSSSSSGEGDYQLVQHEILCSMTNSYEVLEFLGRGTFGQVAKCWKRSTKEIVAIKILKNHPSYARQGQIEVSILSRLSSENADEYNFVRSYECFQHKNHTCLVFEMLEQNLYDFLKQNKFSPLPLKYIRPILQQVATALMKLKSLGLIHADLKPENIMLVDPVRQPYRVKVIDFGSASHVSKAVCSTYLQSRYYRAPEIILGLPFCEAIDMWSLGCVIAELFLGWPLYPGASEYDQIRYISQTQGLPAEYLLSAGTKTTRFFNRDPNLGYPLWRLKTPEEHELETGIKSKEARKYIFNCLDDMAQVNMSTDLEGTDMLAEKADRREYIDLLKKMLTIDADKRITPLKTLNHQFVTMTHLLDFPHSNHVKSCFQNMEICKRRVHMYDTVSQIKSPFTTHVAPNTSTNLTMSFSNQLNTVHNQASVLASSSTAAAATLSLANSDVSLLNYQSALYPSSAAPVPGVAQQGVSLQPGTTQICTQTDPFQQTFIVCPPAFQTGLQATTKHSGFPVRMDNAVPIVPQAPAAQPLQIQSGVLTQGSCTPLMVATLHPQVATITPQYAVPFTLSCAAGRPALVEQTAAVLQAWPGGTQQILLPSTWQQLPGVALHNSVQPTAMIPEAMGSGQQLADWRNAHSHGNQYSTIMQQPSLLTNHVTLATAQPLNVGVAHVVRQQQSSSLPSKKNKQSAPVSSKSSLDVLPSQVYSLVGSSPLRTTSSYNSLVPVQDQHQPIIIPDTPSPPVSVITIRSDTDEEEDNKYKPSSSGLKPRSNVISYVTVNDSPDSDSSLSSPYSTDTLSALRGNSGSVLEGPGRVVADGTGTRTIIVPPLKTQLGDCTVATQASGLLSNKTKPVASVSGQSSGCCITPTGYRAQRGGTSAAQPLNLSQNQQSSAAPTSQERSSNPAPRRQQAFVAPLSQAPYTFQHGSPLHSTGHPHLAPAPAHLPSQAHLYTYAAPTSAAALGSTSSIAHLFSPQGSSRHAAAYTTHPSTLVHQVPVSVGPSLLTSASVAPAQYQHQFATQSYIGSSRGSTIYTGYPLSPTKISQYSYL

IRAK3 (human) = IRAK3 (human) (UniProt Q9Y616)
[1] = biological target: JAK1 JH1 catalytic (human) (UniProt P23458)
[2] = biological target: JAK2 JH1 catalytic (human) (UniProt O60674)
MAP3K9 (human) = MAP3K9 (human) (UniProt P80192)
MAP4K5 (human) = MAP4K5 (human) (UniProt Q9Y4K4)
MAPK1 (human) = MAPK1 (human) (UniProt P28482)
MAPK12 (human) = MAPK12 (human) (UniProt P53778)
MAPK12 (human), sequence (P53778 whole entry, looked up): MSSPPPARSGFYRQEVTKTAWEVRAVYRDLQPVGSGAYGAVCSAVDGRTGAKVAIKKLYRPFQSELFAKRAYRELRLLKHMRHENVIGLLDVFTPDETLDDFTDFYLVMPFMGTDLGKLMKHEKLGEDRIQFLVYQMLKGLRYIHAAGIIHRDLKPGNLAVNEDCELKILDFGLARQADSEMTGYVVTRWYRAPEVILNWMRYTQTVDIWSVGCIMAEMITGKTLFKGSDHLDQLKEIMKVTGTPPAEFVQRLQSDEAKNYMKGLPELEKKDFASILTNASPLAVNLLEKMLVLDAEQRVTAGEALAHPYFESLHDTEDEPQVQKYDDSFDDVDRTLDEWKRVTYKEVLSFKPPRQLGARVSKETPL

MAPK4 (human) = MAPK4 (human) (UniProt P31152)
MARK1 (human) = MARK1 (human) (UniProt Q9P0L2)
MUSK (human) = MUSK (human) (UniProt O15146)
MUSK (human), sequence (O15146 whole entry, looked up): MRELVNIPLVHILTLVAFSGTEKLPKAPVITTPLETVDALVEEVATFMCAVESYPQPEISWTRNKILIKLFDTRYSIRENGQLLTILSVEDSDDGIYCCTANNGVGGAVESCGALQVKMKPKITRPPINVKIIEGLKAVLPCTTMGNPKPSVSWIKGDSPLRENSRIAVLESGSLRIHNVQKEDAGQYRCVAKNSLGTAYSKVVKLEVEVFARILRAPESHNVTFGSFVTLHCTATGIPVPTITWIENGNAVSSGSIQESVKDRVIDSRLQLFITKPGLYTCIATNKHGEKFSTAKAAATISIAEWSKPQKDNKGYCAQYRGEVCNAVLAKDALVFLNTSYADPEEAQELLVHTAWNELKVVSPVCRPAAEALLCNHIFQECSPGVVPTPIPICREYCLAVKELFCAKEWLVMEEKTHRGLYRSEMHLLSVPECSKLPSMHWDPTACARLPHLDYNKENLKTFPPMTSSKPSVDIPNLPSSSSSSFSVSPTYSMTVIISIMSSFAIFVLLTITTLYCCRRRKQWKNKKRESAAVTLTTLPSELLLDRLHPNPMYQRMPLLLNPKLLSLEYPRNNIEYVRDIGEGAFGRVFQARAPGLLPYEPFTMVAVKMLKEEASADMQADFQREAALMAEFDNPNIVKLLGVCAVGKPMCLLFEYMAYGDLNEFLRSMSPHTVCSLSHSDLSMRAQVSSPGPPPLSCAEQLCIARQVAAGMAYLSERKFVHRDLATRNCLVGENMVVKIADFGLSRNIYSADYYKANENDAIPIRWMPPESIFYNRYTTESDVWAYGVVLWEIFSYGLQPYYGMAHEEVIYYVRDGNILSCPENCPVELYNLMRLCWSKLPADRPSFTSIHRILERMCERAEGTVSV

MYLK2 (human) = MYLK2 (human) (UniProt Q9H1R3)
NEK6 (human) = NEK6 (human) (UniProt Q9HC98)
NEK7 (human) = NEK7 (human) (UniProt Q8TDX7)
PHKG2 (human) = PHKG2 (human) (UniProt P15735)
PIM1 (human) = PIM1 (human) (UniProt P11309)
PIP4K2B (human) = PIP4K2B (human) (UniProt P78356)
PRKACA (human) = PRKACA (human) (UniProt P17612)
PRKACB (human) = PRKACB (human) (UniProt P22694)
RIOK2 (human) = RIOK2 (human) (UniProt Q9BVS4)
RIPK2 (human) = RIPK2 (human) (UniProt O43353)
ROS1 (human) = ROS1 (human) (UniProt P08922)
RPS6KA6 KD1 (human) = RPS6KA6 KD1 (human) (UniProt Q9UK32)
SRC (human) = SRC (human) (UniProt P12931)
TLK1 (human) = TLK1 (human) (UniProt Q9UKI8)
TLK1 (human), sequence (Q9UKI8 whole entry, looked up): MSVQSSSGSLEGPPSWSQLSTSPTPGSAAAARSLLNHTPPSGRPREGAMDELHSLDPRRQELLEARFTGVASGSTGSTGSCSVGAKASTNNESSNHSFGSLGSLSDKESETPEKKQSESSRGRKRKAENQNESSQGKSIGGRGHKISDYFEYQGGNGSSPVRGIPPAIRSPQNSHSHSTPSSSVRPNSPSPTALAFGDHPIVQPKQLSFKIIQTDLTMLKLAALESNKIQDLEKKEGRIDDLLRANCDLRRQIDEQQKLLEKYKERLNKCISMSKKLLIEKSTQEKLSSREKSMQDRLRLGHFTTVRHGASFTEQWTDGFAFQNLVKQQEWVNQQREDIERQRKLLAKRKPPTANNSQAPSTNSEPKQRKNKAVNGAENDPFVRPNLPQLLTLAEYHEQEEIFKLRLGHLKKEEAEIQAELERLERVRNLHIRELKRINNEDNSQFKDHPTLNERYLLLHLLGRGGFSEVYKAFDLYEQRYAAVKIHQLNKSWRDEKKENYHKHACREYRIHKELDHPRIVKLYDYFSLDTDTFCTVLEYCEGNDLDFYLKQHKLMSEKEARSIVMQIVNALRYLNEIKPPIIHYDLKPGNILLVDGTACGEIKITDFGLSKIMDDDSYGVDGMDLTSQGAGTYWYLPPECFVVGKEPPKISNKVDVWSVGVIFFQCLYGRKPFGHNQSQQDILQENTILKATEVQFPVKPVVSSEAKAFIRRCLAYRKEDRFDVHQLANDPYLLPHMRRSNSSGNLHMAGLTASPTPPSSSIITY

TSSK1B (human) = TSSK1B (human) (UniProt Q9BXA7)

CDKL2 (human), sequence (Q92772 whole entry, looked up): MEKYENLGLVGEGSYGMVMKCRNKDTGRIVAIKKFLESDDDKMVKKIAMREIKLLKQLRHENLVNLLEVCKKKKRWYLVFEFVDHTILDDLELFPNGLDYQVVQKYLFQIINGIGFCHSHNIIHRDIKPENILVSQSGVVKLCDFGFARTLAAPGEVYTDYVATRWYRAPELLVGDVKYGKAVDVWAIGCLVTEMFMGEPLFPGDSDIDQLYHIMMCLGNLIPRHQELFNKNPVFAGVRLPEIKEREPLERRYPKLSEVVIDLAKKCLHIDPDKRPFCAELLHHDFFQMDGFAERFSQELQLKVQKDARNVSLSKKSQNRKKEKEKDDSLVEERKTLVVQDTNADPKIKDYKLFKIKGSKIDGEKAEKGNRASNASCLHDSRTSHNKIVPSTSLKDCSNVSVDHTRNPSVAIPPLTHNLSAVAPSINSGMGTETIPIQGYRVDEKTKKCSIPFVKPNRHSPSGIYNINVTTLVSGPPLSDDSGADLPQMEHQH
CDK7 (human), sequence (P50613 whole entry, looked up): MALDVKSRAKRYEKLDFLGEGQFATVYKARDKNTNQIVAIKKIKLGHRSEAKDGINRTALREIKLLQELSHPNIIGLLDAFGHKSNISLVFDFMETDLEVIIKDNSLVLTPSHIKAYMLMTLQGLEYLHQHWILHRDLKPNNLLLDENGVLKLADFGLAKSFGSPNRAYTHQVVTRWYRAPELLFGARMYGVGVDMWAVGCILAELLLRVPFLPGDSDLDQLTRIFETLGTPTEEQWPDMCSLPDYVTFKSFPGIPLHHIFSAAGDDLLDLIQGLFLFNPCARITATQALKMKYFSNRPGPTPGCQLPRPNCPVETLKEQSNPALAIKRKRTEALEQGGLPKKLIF

Row | Structure (SMILES) | kinase still bound, per cent of control (AURKA (human)) [%] | kinase still bound, per cent of control (BMPR2 (human)) [%] | kinase still bound, per cent of control (CDC42BPB (human)) [%] | kinase still bound, per cent of control (CDK7 (human)) [%] | kinase still bound, per cent of control (CDKL2 (human)) [%] | kinase still bound, per cent of control (CLK3 (human)) [%] | kinase still bound, per cent of control (CSNK1E (human)) [%] | kinase still bound, per cent of control (CaMK1 (human)) [%] | kinase still bound, per cent of control (DAPK3 (human)) [%] | kinase still bound, per cent of control (DDR2 (human)) [%] | kinase still bound, per cent of control (EIF2AK2 (human)) [%] | kinase still bound, per cent of control (EPHA3 (human)) [%] | kinase still bound, per cent of control (EPHB1 (human)) [%] | kinase still bound, per cent of control (EPHB3 (human)) [%] | kinase still bound, per cent of control (HIPK1 (human)) [%] | kinase still bound, per cent of control (IRAK3 (human)) [%] | kinase still bound, per cent of control [1] [%] | kinase still bound, per cent of control [2] [%] | kinase still bound, per cent of control (MAP3K9 (human)) [%] | kinase still bound, per cent of control (MAP4K5 (human)) [%] | further results
1 | O=C1Nc2ccc(I)cc2/C1=C/c1cc(Br)c(O)c(Br)c1 | 65 | 100 | 100 | 67 | 82 | 84 | 84 | 70 | 2.6 | 73 | 75 | 66 | 100 | 100 | 11 | 62 | 100 | 57 | 47 | 100 | kinase still bound, per cent of control (MAPK1 (human)): 87%; kinase still bound, per cent of control (MAPK12 (human)): 74%; kinase still bound, per cent of control (MAPK4 (human)): 100%; kinase still bound, per cent of control (MARK1 (human)): 99%; kinase still bound, per cent of control (MUSK (human)): 74%; kinase still bound, per cent of control (MYLK2 (human)): 85%; kinase still bound, per cent of control (NEK6 (human)): 96%; kinase still bound, per cent of control (NEK7 (human)): 100%; kinase still bound, per cent of control (PHKG2 (human)): 92%; kinase still bound, per cent of control (PIM1 (human)): 2.8%; kinase still bound, per cent of control (PIP4K2B (human)): 10%; kinase still bound, per cent of control (PRKACA (human)): 100%; kinase still bound, per cent of control (PRKACB (human)): 100%; kinase still bound, per cent of control (RIOK2 (human)): 35%; kinase still bound, per cent of control (RIPK2 (human)): 38%; kinase still bound, per cent of control (ROS1 (human)): 99%; kinase still bound, per cent of control (RPS6KA6 KD1 (human)): 51%; kinase still bound, per cent of control (SRC (human)): 100%; kinase still bound, per cent of control (TLK1 (human)): 100%; kinase still bound, per cent of control (TSSK1B (human)): 65%
2 | CN(C)C/C=C/C(=O)Nc1cccc(Nc2ncc3c(n2)N(C)c2ccccc2C(=O)N3C)c1 | 0.65 | 71 | 100 | 9.6 | 92 | 82 | 75 | 49 | 45 | 11 | 75 | 43 | 90 | 88 | 76 | 44 | 2.8 | 0.75 | 89 | 75 | kinase still bound, per cent of control (MAPK1 (human)): 100%; kinase still bound, per cent of control (MAPK12 (human)): 83%; kinase still bound, per cent of control (MAPK4 (human)): 100%; kinase still bound, per cent of control (MARK1 (human)): 4.3%; kinase still bound, per cent of control (MUSK (human)): 100%; kinase still bound, per cent of control (MYLK2 (human)): 46%; kinase still bound, per cent of control (NEK6 (human)): 73%; kinase still bound, per cent of control (NEK7 (human)): 100%; kinase still bound, per cent of control (PHKG2 (human)): 25%; kinase still bound, per cent of control (PIM1 (human)): 66%; kinase still bound, per cent of control (PIP4K2B (human)): 36%; kinase still bound, per cent of control (PRKACA (human)): 100%; kinase still bound, per cent of control (PRKACB (human)): 100%; kinase still bound, per cent of control (RIOK2 (human)): 79%; kinase still bound, per cent of control (RIPK2 (human)): 18%; kinase still bound, per cent of control (ROS1 (human)): 27%; kinase still bound, per cent of control (RPS6KA6 KD1 (human)): 9.2%; kinase still bound, per cent of control (SRC (human)): 0.7%; kinase still bound, per cent of control (TLK1 (human)): 100%; kinase still bound, per cent of control (TSSK1B (human)): 53%
